Earlier results as cited in patent publication US20070191304A1, “Methods for performing percutaneous coronary intervention” (priority 2005, published 2007).

Settings: bivalirudin plus GP IIb/IIIa inhibitors

## bivalirudin
  Primary endpoint of death, myocardial infarction, urgent revascularization and major bleeding, compared to UFH plus planned GP IIb/IIIa inhibitors: noninferior
